# Legend:
# NR2B receptor = biological target: T1, NR2B receptor (Rattus norvegicus, UniProt P35439+Q00960); test: NR2B Binding Assay; details: statement in words in Background Art on prior-art compounds; test not named
# T1 construct: Membranes were prepared by homogenization of forebrain of male CD rats; from tissue; host or cells: rat forebrain P2 membranes
# Protocol: The activity of the cycloalkylene amide compounds of the present invention, as NR2B antagonists, is determined by their ability to inhibit the binding of NR2B subunit at its receptor sites employing radioactive ligands.
# The NR2B antagonist activity of the cycloalkylene amide compounds is evaluated by using the standard assay procedure described in, for example, J. Pharmacol., 331, pp117-126, 1997. This method essentially involves determining the concentration of the individual compound required to reduce the amount of radiolabelled NR2B ligands by 50% at their receptor sites, thereby affording characteristic IC50 values for each compound tested. More specifically, the assay is carried out as follows.
# Membranes were prepared by homogenization of forebrain of male CD rats weighing between 170˜190 g by using glass-Teflon homogenizer in 0.32 M sucrose at 4° C. The crude nuclear pellet was removed by centrifugation at 1000×g for 10 min, and the supernatant centrifuged at 17000×g for 25 min. […]
# For the saturation assay, receptor saturation was determined by incubating [^3H]-CP-98,113 and 50 μg protein of P2 membrane for 60 minutes at room temperature in a final 100 μl of incubation buffer (50 mM Tris HCl, pH7.4). Total and non-specific bindings (in the presence of 10 μM of unlabeled CP-98,113) were determined in a range of [^3H]-CP-98113 concentrations (0.625 nM to 60 nM). […]
# For the competition assay, test compounds were incubated in duplicate with 5 nM [^3H]-CP-98,113 and 50 μg protein of P2 membrane for 60 minutes at room temperature in a final 100 μl of 50 mM Tris HCl buffer (pH7.4). Nonspecific binding was determined by 10 μM of unlabeled CP-98,113 (25 μl). […]
# All incubations were terminated by rapid vacuum filtration over 0.2% polyethyleneimine soaked Whatman GF/B glass fibre filter paper using a SKATRON cell harvester followed by three washes with ice-cold filtration buffer (5 mM Tris HCl, pH 7.4.). Receptor-bound radioactivity was quantified by liquid scintillation counting using Packard LS counter. […]
# human NR1b/2B receptor = biological target: T2, human NR1b/2B receptor (Homo sapiens, UniProt Q13224); test: Human NR2B Cell Functional Assay; format: cell-based; details: statement in words in Background Art; test not named
# T2 construct: expressed in transfected cells
# Protocol: Human NR2B Cell Functional Assay
# HEK293 cells stably expressing human NR1b/2B receptor were used for cell functional assay. Cells were grown in 75-cm^2 culture flasks, using Dulbecco's modified Eagle's medium (DMEM, high glucose) supplemented with 10% fetal bovine, 52 μg/ml Zeocin, 530 μg/ml Geneticin, 100 units/ml penicillin and 100 μg/ml streptomycin. Cells were maintained in a humidified atmosphere in 5% CO2 at 37° C., and 50-60% confluent cells were harvested by 0.05% trypsin containing 0.53 mM EDTA. The day before the experiment, expression of NR1b/2B receptor was induced by 5 μM ponasteron A in DMEM (40 ml) in the presence of 400 μM ketamine to prevent excitotoxicity. […]
# Cells were washed with 10 ml of Ca^2+-free Krebs-Ringer Hepes buffer (KRH) containing 400 μM ketamine, and the loading of 5 μM fura-2 acetoxymethyl ester was made for 2 hrs at room temperature in the presence of 400 μM ketamine in Ca^2+-free KRH (10 ml). […] Fura-2 fluorescence (excitation wavelengths: 340 nm and 380 nm; emission wavelengths 510-520 nm) was monitored with a fluorescence imaging system, FDSS6000. The Δ fluorescence ratio F340/F380 (i.e., the fluorescence ratio immediately post-agonist—the basal fluorescence ratio; calculated as AUC) was used for evaluation of drug effects on agonists-induced changes in intracellular Ca^2+. The basal fluorescence ratio was determined in the presence of 10 μM MK-801.
# QT prolongation = details: statement in words in Background Art; attributed to HERG inhibition
# T1 sequence (Q00960 27-1482, other chains not shown): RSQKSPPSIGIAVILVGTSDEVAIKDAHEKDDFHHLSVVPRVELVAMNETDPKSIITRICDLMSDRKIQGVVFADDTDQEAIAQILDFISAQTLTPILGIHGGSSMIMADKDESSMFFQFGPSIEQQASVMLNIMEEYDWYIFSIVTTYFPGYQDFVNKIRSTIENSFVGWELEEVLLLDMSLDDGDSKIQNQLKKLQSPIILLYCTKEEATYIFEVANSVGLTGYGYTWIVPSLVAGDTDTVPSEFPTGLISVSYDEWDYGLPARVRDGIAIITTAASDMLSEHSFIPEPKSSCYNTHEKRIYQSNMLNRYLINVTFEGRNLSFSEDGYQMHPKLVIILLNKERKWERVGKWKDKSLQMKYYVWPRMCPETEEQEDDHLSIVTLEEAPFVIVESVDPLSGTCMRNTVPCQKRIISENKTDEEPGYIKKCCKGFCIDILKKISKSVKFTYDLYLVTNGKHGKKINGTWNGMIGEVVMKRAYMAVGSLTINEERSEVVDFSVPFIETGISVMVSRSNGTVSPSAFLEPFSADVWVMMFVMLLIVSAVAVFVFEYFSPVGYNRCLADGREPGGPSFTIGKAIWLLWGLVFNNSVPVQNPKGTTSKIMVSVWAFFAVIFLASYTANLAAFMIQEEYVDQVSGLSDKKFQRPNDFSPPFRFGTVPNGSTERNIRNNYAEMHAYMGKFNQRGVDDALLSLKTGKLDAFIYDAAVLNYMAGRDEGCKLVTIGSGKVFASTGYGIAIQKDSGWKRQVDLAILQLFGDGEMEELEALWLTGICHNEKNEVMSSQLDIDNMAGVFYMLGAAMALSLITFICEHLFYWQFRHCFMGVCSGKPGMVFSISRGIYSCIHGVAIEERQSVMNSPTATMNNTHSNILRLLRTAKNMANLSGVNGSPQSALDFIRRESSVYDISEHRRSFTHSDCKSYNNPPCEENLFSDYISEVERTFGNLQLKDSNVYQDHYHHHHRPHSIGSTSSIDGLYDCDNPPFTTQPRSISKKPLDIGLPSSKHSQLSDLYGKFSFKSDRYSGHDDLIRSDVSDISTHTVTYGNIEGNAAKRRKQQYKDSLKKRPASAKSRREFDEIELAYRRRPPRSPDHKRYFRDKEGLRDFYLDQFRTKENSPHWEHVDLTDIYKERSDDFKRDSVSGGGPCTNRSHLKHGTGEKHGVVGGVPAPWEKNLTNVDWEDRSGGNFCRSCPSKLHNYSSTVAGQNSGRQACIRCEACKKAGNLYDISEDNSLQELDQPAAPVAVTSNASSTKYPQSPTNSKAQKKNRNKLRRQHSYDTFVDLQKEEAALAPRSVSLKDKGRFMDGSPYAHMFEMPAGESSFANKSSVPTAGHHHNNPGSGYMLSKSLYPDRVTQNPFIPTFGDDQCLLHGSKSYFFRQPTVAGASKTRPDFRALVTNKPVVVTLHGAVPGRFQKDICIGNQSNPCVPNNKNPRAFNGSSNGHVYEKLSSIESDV
# T2 sequence (Q13224 27-1484): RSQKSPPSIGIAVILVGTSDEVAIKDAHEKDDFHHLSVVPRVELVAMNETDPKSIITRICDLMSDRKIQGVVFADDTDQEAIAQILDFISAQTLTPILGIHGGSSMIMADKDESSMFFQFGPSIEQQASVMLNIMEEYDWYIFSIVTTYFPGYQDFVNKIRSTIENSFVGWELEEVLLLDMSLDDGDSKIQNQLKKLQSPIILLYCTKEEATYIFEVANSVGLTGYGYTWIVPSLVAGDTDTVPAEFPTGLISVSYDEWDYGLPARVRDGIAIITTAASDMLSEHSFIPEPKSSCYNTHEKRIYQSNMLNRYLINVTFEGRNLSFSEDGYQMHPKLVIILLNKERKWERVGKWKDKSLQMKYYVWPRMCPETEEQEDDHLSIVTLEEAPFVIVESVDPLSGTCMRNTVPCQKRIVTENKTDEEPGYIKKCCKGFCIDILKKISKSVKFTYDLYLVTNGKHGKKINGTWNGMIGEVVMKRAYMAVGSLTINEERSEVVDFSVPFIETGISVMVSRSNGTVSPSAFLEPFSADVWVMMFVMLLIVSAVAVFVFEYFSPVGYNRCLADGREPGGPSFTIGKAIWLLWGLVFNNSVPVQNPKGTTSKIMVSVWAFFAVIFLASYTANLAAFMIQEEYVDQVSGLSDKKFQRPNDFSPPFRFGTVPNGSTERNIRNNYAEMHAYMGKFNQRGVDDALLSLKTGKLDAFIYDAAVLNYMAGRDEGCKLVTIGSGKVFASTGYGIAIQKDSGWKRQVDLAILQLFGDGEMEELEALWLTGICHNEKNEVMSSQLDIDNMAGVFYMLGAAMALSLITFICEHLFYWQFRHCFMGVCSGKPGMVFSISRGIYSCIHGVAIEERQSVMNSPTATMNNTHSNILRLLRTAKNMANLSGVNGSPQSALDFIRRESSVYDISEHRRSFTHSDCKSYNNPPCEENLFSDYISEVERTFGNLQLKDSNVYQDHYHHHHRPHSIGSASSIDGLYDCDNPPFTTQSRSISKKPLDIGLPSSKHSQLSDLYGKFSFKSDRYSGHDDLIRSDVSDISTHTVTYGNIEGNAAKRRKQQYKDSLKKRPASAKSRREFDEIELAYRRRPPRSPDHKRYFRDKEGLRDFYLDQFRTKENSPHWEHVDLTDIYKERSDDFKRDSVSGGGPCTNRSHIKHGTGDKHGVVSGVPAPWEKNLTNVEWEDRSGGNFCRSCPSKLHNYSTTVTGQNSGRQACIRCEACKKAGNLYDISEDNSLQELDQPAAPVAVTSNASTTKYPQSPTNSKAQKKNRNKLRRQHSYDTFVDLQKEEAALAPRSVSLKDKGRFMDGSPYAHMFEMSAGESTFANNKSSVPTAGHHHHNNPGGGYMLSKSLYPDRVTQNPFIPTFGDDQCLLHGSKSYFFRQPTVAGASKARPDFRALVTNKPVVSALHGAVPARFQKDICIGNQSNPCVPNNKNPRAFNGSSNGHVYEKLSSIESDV
structure (smiles),measurement,setting,value
O=C(CCc1ccccc1)N[C@H]1CO[C@H](c2ccc(O)cc2)OC1 [B],binding affinity (NR2B receptor),NR2B receptor,insufficient
same,NR2B receptor antagonist activity,human NR1b/2B receptor,insufficient
"O=C(CCc1ccc(F)cc1)N[C@H]1CC[C@H](c2ccc(O)cn2)CC1 [Example 12, 3-(4-fluorophenyl)-N-[trans-4-(5-hydroxypyridin-2-yl)cyclohexyl]propanamide]",melting point,,195.4 °C
O=C(CCc1ccccc1)N[C@H]1CC[C@H](c2ccc(O)cc2)CC1 [Compound A],binding affinity (NR2B receptor),NR2B receptor,insufficient
CN(CCCc1ccc(F)cc1)[C@H]1CC[C@H](c2ccc3[nH]c(=O)oc3c2)CC1 [Compound E],binding affinity (NR2B receptor),NR2B receptor,potent
same,QT prolongation,QT prolongation,shows QT prolongation
"O=C(CCc1ccc(Cl)cc1Cl)N[C@H]1CC[C@](O)(c2ccc(O)cn2)CC1 [Example 7, 3-(2,4-dichlorophenyl)-N-[cis-4-hydroxy-4-(5-hydroxypyridin-2-yl)cyclohexyl]propanamide]",melting point,,198.1 °C
